Results as given in patent US4261892A, “2,4,6-Tris-(substituted-amino)-s-triazines” (American Cyanamid Company, priority 1979, dated 1981).
Where two headings read alike, the source gives them in different places.

Tests used:
[1] = system: Adjuvant Arthritis In Rats; test: Adjuvant-induced arthritis in rats (chronic inflammation accompanied by joint destruction); type: in vivo, Royal Hart, Wistar strain rats; settings: for inhibition in vivo at 0.25 mg/kg / inhibition in vivo at 0.5 mg/kg / inhibition in vivo at 2 mg/kg / inhibition in vivo at 1 mg/kg / inhibition in vivo at 50 mg/kg / inhibition in vivo at 100 mg/kg / inhibition in vivo at 200 mg/kg / inhibition in vivo at 400 mg/kg: Rattus norvegicus
Method: Groups of three Royal Hart, Wistar strain rats weighing 200±10 grams each were injected intradermally in the right hind paw with Freund's adjuvant (dried human tubercle bacilli in a mineral oil vehicle) at a dose of 2 mg./kg. of body weight. […] On the 14th and 21st day post challenge the diameter of the injected paw (primary lesion) was measured by micrometer caliper. The volume of inflamed paws were estimated from these measurements and the results are expressed as percent inhibition of swelling as compared to controls. At the same time, the other inflamed sites, such as ears, paws and tail (secondary lesions) were observed and each rat was graded as to degree of inflammation and swelling present. The grading is based on a scale of 0 to 24 where 0 represents a complete absence of induced arthritic nodules and 24 represents the maximum degree of inflammation. The mean grade for each treated group is calculated and the effects of each compound are expressed as percent inhibition of the control grade.

[2] = system: arthritic paw swelling / joint and bone deterioration; settings: literature (Wong et al., Bobalick et al.); cited from earlier work
[3] = po, 336 h, read-out: % Inhibition of Swelling (primary lesion) Day 14
[4] = oral 0.25 mg./kg. once daily days 0-13, Day 14
[5] = oral 0.25 mg./kg. once daily days 0-13, Day 21
[6] = oral 0.5 mg./kg. once daily days 0-13, Day 14
[7] = oral 0.5 mg./kg. once daily days 0-13, Day 21
[8] = oral 1 mg./kg. once daily days 0-13, Day 14
[9] = oral 1 mg./kg. once daily days 0-13, Day 21
[10] = oral 2 mg./kg. once daily days 0-13, Day 14
[11] = oral 2 mg./kg. once daily days 0-13, Day 21
[12] = oral 50 mg./kg. once daily days 0-13, Day 14
[13] = oral 50 mg./kg. once daily days 0-13, Day 21
[14] = oral 50 mg./kg. once daily days 0-13
[15] = oral 100 mg./kg. once daily days 0-13, Day 14
[16] = oral 100 mg./kg. once daily days 0-13, Day 21
[17] = oral 200 mg./kg. once daily days 0-13, Day 14
[18] = oral 200 mg./kg. once daily days 0-13, Day 21
[19] = oral 400 mg./kg. once daily days 0-13, Day 14
[20] = oral 400 mg./kg. once daily days 0-13, Day 21

COc1ccc2c(c1)c(CC(=O)O)c(C)n2C(=O)c1ccc(Cl)cc1 [Indomethacin]
inhibition in vivo at 0.25 mg/kg ([1]; 336 h, oral 0.25 mg./kg. once daily days 0-13, Day 14, read-out: % Inhibition of Swelling (primary lesion) Day 14): 30% | inhibition in vivo at 0.5 mg/kg ([1]; 336 h, oral 0.5 mg./kg. once daily days 0-13, Day 14, read-out: % Inhibition of Swelling (primary lesion) Day 14): 40% | inhibition in vivo at 2 mg/kg ([1]; 336 h, oral 2 mg./kg. once daily days 0-13, Day 14, read-out: % Inhibition of Swelling (primary lesion) Day 14): 51% | inhibition in vivo at 0.25 mg/kg ([1]; 504 h, oral 0.25 mg./kg. once daily days 0-13, Day 21, read-out: % Inhibition of Swelling (primary lesion) Day 21): 4% | inhibition in vivo at 0.5 mg/kg ([1]; 504 h, oral 0.5 mg./kg. once daily days 0-13, Day 21, read-out: % Inhibition of Swelling (primary lesion) Day 21): 20% | inhibition in vivo at 1 mg/kg ([1]; 504 h, oral 1 mg./kg. once daily days 0-13, Day 21, read-out: % Inhibition of Swelling (primary lesion) Day 21): 19% | inhibition in vivo at 2 mg/kg ([1]; 504 h, oral 2 mg./kg. once daily days 0-13, Day 21, read-out: % Inhibition of Swelling (primary lesion) Day 21): 24% | inhibition in vivo at 1 mg/kg [1, 3]: 46% | % Inhibition of Control Grade (secondary lesion) Day 14 [1, 4]: 22% | Mean Weight Gain (grams) Day 14 [1, 4]: 51 grams | % Inhibition of Control Grade (secondary lesion) Day 21 [1, 5]: 4% | Mean Weight Gain (grams) Day 21 [1, 5]: 57 grams | Dead/Treated at 21 Days ([1]; oral 0.25 mg./kg. once daily days 0-13): 0/9 | % Inhibition of Control Grade (secondary lesion) Day 14 [1, 6]: 25% | Mean Weight Gain (grams) Day 14 [1, 6]: 53 grams | % Inhibition of Control Grade (secondary lesion) Day 21 [1, 7]: 17% | Mean Weight Gain (grams) Day 21 [1, 7]: 51 grams | Dead/Treated at 21 Days ([1]; oral 0.5 mg./kg. once daily days 0-13): 5/54 | % Inhibition of Control Grade (secondary lesion) Day 14 [1, 8]: 34% | Mean Weight Gain (grams) Day 14 [1, 8]: 63 grams | % Inhibition of Control Grade (secondary lesion) Day 21 [1, 9]: 20% | Mean Weight Gain (grams) Day 21 [1, 9]: 65 grams | Dead/Treated at 21 Days ([1]; oral 1 mg./kg. once daily days 0-13): 9/54 | % Inhibition of Control Grade (secondary lesion) Day 14 [1, 10]: 38% | Mean Weight Gain (grams) Day 14 [1, 10]: 68 grams | % Inhibition of Control Grade (secondary lesion) Day 21 [1, 11]: 25% | Mean Weight Gain (grams) Day 21 [1, 11]: 68 grams | Dead/Treated at 21 Days ([1]; oral 2 mg./kg. once daily days 0-13): 8/57 | arthritic paw swelling [2]: inhibit arthritic paw swelling | joint and bone deterioration [2]: prevent joint and bone deterioration

CC(=O)Oc1ccccc1C(=O)O [Aspirin]
inhibition in vivo at 50 mg/kg ([1]; 336 h, oral 50 mg./kg. once daily days 0-13, Day 14, read-out: % Inhibition of Swelling (primary lesion) Day 14): 23% | inhibition in vivo at 100 mg/kg ([1]; 336 h, oral 100 mg./kg. once daily days 0-13, Day 14, read-out: % Inhibition of Swelling (primary lesion) Day 14): 36% | inhibition in vivo at 200 mg/kg ([1]; 336 h, oral 200 mg./kg. once daily days 0-13, Day 14, read-out: % Inhibition of Swelling (primary lesion) Day 14): 48% | inhibition in vivo at 400 mg/kg ([1]; 336 h, oral 400 mg./kg. once daily days 0-13, Day 14, read-out: % Inhibition of Swelling (primary lesion) Day 14): 73% | inhibition in vivo at 50 mg/kg ([1]; 504 h, oral 50 mg./kg. once daily days 0-13, Day 21, read-out: % Inhibition of Swelling (primary lesion) Day 21): 3% | inhibition in vivo at 100 mg/kg ([1]; 504 h, oral 100 mg./kg. once daily days 0-13, Day 21, read-out: % Inhibition of Swelling (primary lesion) Day 21): 13% | inhibition in vivo at 200 mg/kg ([1]; 504 h, oral 200 mg./kg. once daily days 0-13, Day 21, read-out: % Inhibition of Swelling (primary lesion) Day 21): 27% | inhibition in vivo at 400 mg/kg ([1]; 504 h, oral 400 mg./kg. once daily days 0-13, Day 21, read-out: % Inhibition of Swelling (primary lesion) Day 21): 48% | % Inhibition of Control Grade (secondary lesion) Day 14 [1, 12]: 12% | Mean Weight Gain (grams) Day 14 [1, 12]: 56 grams | % Inhibition of Control Grade (secondary lesion) Day 21 [1, 13]: 9% | Mean Weight Gain (grams) Day 21 [1, 13]: 44 grams | Dead/Treated at 21 Days [1, 14]: 2/21 | % Inhibition of Control Grade (secondary lesion) Day 14 [1, 15]: 19% | Mean Weight Gain (grams) Day 14 [1, 15]: 48 grams | % Inhibition of Control Grade (secondary lesion) Day 21 [1, 16]: 8% | Mean Weight Gain (grams) Day 21 [1, 16]: 53 grams | Dead/Treated at 21 Days ([1]; oral 100 mg./kg. once daily days 0-13): 18/63 | % Inhibition of Control Grade (secondary lesion) Day 14 [1, 17]: 26% | Mean Weight Gain (grams) Day 14 [1, 17]: 40 grams | % Inhibition of Control Grade (secondary lesion) Day 21 [1, 18]: 17% | Mean Weight Gain (grams) Day 21 [1, 18]: 44 grams | Dead/Treated at 21 Days ([1]; oral 200 mg./kg. once daily days 0-13): 10/66 | % Inhibition of Control Grade (secondary lesion) Day 14 [1, 19]: 58% | Mean Weight Gain (grams) Day 14 [1, 19]: 41 grams | % Inhibition of Control Grade (secondary lesion) Day 21 [1, 20]: 45% | Mean Weight Gain (grams) Day 21 [1, 20]: 55 grams | Dead/Treated at 21 Days ([1]; oral 400 mg./kg. once daily days 0-13): 18/57

CC(C)(C)CC(C)(C)Nc1nc(NC(C)(C)C)nc(N2CC3CCC(CC3)C2)n1 [2-(tert-butylamino)-4-(1,1,3,3-tetramethylbutylamino)-6-(3-azabicyclo[3.2.2]nonyl)-s-triazine]
inhibition in vivo at 50 mg/kg [1, 3]: 42% | inhibition in vivo at 50 mg/kg ([1]; po, 504 h, read-out: % Inhibition of Swelling (primary lesion) Day 21): 14% | Mean Weight Gain (grams) Day 14 [1, 12]: 85 grams | Mean Weight Gain (grams) Day 21 [1, 13]: 87 grams | Dead/Treated at 21 Days [1, 14]: 3/18
